# In PMC12700550, “DLL4^+ neutrophils promote Notch1-mediated endothelial PANoptosis to exacerbate acute lung injury in sepsis” (The Journal of Clinical Investigation, 2025):
# Tested on: ZBP1
# Assay: ZBP1 in pulmonary endothelial cells (CD31) of CLP mice, confocal immunofluorescence
# Format: in vivo, mouse
# Settings: sepsis, 10 mg/kg NDI, 20 h
# Experimental: Sepsis was induced in mice by cecal ligation and puncture (CLP) as described previously ([45], [46]). Mice were anesthetized with isoflurane to a surgical plane and placed in a supine position. CLP was performed through a midline laparotomy. The abdomen was shaved and disinfected. Through a 2 cm midline incision, the cecum was exposed and then ligated with a 4-0 silk suture 1 cm proximal from the distal cecal extremity. For 20-hour CLP experiments, the cecum was punctured twice with a 22-gauge needle. A small amount of cecal content was extruded through both holes, and the ligated cecum was returned to the peritoneal cavity. The wound was closed in layers. For 10-day sepsis survival studies, the cecum was punctured once with a 22-gauge needle. A small amount of cecal content was extruded. Mice were allocated to the vehicle and adoptive transfer of DLL4^+ neutrophils or DLL4^– neutrophils groups. Adoptive transfer mice received a retro-orbital injection of 1 × 10^6 cells per mouse DLL4^+ neutrophils or DLL4^– neutrophils in […] phosphate-buffered saline (PBS) immediately after abdominal closure in both the 20-hour experiments and the survival study. […]
# For immunohistochemistry staining, paraffin-embedded lung tissue sections were deparaffinized and dewaxed in xylene and a series of ethanol. […] The images were analyzed with ImageJ Fiji (NIH).
sequence,measurement,value
ECAGSPCHNGGTCEDGI [NDI],"effect on ZBP1 in pulmonary endothelial cells, immunostaining",reduced ZBP1 expression in pulmonary endothelial cells in sepsis
